Results published in patent publication US12421220B2, “Bicyclic-substituted glutarimide cereblon binders” (C4 THERAPEUTICS, INC., priority 2022, dated 2025).
Like-named read-outs stand apart in the source and are kept apart here.

Experiments:
CRBN-DDB1 (CRBN_DDB1.7) = CRBN-DDB1 (CRBN_DDB1.7) (Homo sapiens, UniProt Q96SW2); assay: Fluorescence polarization (FP) binding assay, CRBN_DDB1.7 construct; conditions: 0.05% PA, 0.1% BSA
Protocol: (§1) Example 2: Fluorescence Polarization (FP) Assay for Screening Compound Ligand Binders of CRBN-DDB1
(§2) Measuring compound ligand binding to CRBN-DDB 1 was carried out using an established sensitive and quantitative in vitro fluorescence polarization (FP) based binding assay. (See, I. J. Enyedy et al, J. Med. Chem., 44: […] [2001]). Compounds were dispensed from serially diluted DMSO stock into black 384-well compatible fluorescence polarization plates using an Echo acoustic dispenser. Compound binding to CRBN-DDB 1 was measured by displacement of an established CRBN binding ligand conjugated to an Alexa Fluor® dye (probe). A […] mixture containing 10nM CRBN-DDB1 and 5 nM probe in 50 mM Hepes, pH 7.4, 200 mM NaCl, 1% DMSO, 0.1% BSA and 0.05% o pluronic acid-127 acid was added to wells containing compound and incubated at room temperature for 60 min. Matching control wells excluding CRBN-DDB 1 were used to correct for background fluorescence. Plates were read on an Envision plate reader with appropriate FP filter sets. The corrected S (perpendicular) and P (parallel) values were used to calculate fluorescence polarization (FP) with the following equation: FP=1000*(S−G*P)/(S+G*P).
(§3) The fractional amount of bound probe (FB) to CRBN-DDB 1 as a function of compound concentration was fitted according to Wang; FEBS Letters 360, (1995), 111-114 to obtain fits for parameter offsets and binding constant (KA) of competitor compound.

CRBN-DDB1 (CRBN_DDB1.3) [1] = molecular target: T1, CRBN-DDB1 (CRBN_DDB1.3) (Homo sapiens, UniProt Q96SW2); assay: Fluorescence polarization (FP) binding assay, CRBN_DDB1.3 construct; conditions: for Kd: 0.05% PA, 0.1% BSA, read-out: FP CRBN_DDB1.3 0.05% PA, 0.1% BSA ka nM
Protocol: as §1, §2, §3

CRBN-DDB1 (CRBN_DDB1.3) [2] = molecular target: T1, CRBN-DDB1 (CRBN_DDB1.3); assay: as above; conditions: 0.05% PA (no BSA); benzomorpholine binders; read-out: FP CRBN_DDB1.3 0.05% PA Ka
[3] = indoline binders, read-out: FP CRBN_DDB1.7 0.05% PA, 0.1% BSA ka nM
[4] = tetrahydroquinoline binders, read-out: FP CRBN_DDB1.7 0.05% PA, 0.1% BSA ka nM

Chain of CRBN-DDB1 (CRBN_DDB1.7) (Q96SW2 81-442 limits assumed): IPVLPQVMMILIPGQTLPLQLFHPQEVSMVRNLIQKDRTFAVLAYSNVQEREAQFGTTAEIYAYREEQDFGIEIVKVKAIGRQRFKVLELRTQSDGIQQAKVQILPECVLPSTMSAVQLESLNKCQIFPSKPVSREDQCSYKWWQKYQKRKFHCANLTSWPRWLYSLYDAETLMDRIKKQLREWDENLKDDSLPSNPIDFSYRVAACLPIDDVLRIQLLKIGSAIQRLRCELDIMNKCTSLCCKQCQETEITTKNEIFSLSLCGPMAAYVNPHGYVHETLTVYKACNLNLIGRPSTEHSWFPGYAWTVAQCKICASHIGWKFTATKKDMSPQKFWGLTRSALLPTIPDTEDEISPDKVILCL
T1 sequence (Q96SW2 318-426 limits assumed): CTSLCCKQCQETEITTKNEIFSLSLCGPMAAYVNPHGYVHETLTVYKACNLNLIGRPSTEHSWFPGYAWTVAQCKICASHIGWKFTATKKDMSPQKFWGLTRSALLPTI

Kd (CRBN-DDB1 (CRBN_DDB1.7); [3]) [nM]	Kd (CRBN-DDB1 (CRBN_DDB1.3) [1]; indoline binders) [nM]	SMILES	other results
< 100000		CC(C)(C)OC(=O)N1CCC(c2cccc3c2CCN3[C@@H]2CCC(=O)NC2=O)CC1 (single isomer, unassigned) [Compound 41-4]	
< 100000	< 100000	CC(C)(C)OC(=O)N1CCC(c2c(F)ccc3c2CCN3[C@@H]2CCC(=O)NC2=O)CC1 (single isomer, unassigned) [Compound 49-7]	
		O=C1CCC(N2C(=O)COc3c(Br)cccc32)C(=O)N1 (centres unmarked) [Compound 33-5, 3-(8-bromo-3-oxo-1,4-benzoxazin-4-yl)piperidine-2,6-dione]	Kd (CRBN-DDB1 (CRBN_DDB1.7); benzomorpholine binders, read-out: FP CRBN_DDB1.7 0.05% PA, 0.1% BSA Ka nM): ≤ 100000 nM
< 1000	< 1000	O=C1CC[C@@H](N2CCc3c(N4CCC(CCO)CC4)cccc32)C(=O)N1 (single isomer, unassigned) [Compound 42-6]	
< 1000	< 100000	O=C1CC[C@@H](N2CCc3c(N4CCC5(CC4)OCCO5)cccc32)C(=O)N1 (single isomer, unassigned) [Compound 45-4]	
		CC(C)(C)OC(=O)N1CCC(c2cccc3c2OCCN3C2CCC(=O)NC2=O)CC1 (centres unmarked) [Compound 9-6, tert-butyl 4-[4-(2,6-dioxo-3-piperidyl)-2,3-dihydro-1,4-benzoxazin-8-yl]piperidine-1-carboxylate]	FP CRBN_DDB1.3 0.05% PA, 0.1% BSA Ka nM (CRBN-DDB1 (CRBN_DDB1.3) [1]; benzomorpholine binders): ** (≤100 μM is **); Kd (CRBN-DDB1 (CRBN_DDB1.3) [2]): ≤ 100 µM
< 100000		CN(C(=O)OC(C)(C)C)C1CCN(c2c(F)ccc3c2CCN3[C@H]2CCC(=O)NC2=O)CC1 (single isomer, unassigned) [Compound 44-8]	
< 100000	< 100000	O=C1CC[C@H](N2CCc3c(N4CCC(CCO)CC4)cccc32)C(=O)N1 (single isomer, unassigned) [Compound 42-5]	
< 100000	< 100000	CC(C)(C)OC(=O)N1CCC(c2ccc3c(c2F)CCN3[C@H]2CCC(=O)NC2=O)CC1 (single isomer, unassigned) [Compound 47-6]	
< 100000		CN(C(=O)OC(C)(C)C)C1CCN(c2c(F)ccc3c2CCN3[C@@H]2CCC(=O)NC2=O)CC1 (single isomer, unassigned) [Compound 44-9]	
< 100000	< 100000	CN(C(=O)OC(C)(C)C)C1CCN(c2cccc3c2CCN3C2CCC(=O)NC2=O)CC1 (racemic) [Compound 34-5, tert-butyl (1-(1-(2,6-dioxopiperidin-3-yl)indolin-4-yl)piperidin-4-yl)(methyl)carbamate]	
< 100000	< 100000	CC(C)(C)OC(=O)N1CCC(c2c(F)cc3c(c2F)CCN3[C@@H]2CCC(=O)NC2=O)CC1 (single isomer, unassigned) [Compound 50-9]	
< 100000	< 100000	CC(C)(C)OC(=O)N1CCC(c2c(F)cc3c(c2F)CCN3[C@H]2CCC(=O)NC2=O)CC1 (single isomer, unassigned) [Compound 50-8]	
< 100000	< 100000	CC(C)(C)OC(=O)N1CCC(c2ccc3c(c2F)CCN3[C@@H]2CCC(=O)NC2=O)CC1 (single isomer, unassigned) [Compound 47-7]	
< 100000		O=C1CC[C@H](N2CCc3c(N4CCC(O)CC4)cccc32)C(=O)N1 (single isomer, unassigned) [Compound 43-5]	
< 100000		O=C1CCC(N2CCc3c(N4CCNCC4)cccc32)C(=O)N1 (centres unmarked) [Compound 37-4, 3-(4-piperazin-1-ylindolin-1-yl)piperidine-2,6-dione]	
		O=C1CCC(N2CCOc3c(C4CCNCC4)cccc32)C(=O)N1 (centres unmarked) [Compound 9-11, 3-[8-(4-piperidyl)-2,3-dihydro-1,4-benzoxazin-4-yl]piperidine-2,6-dione]	Kd (CRBN-DDB1 (CRBN_DDB1.3) [2]): ≤ 100 µM

Kd (CRBN-DDB1 (CRBN_DDB1.7); [3]) [nM]	Kd (CRBN-DDB1 (CRBN_DDB1.3) [1]; indoline binders) [nM]	SMILES	other results
< 100000	< 1000	O=C1CC[C@H](N2CCc3c(N4CCC5(CC4)OCCO5)cccc32)C(=O)N1 (single isomer, unassigned) [Compound 45-3]	
< 100000	< 100000	CN(C(=O)OC(C)(C)C)[C@H]1CC[C@H](c2c(F)ccc3c2CCN3C2CCC(=O)NC2=O)CC1 (single isomer, unassigned) [Compound 46-9a, tert-butyl ((1r,4r)-4-(1-(2,6-dioxopiperidin-3-yl)-5-fluoroindolin-4-yl)cyclohexyl)(methyl)carbamate]	
< 100000	< 100000	CC(C)(C)OC(=O)N1CCC(c2c(F)ccc3c2CCN3[C@H]2CCC(=O)NC2=O)CC1 (single isomer, unassigned) [Compound 49-6]	
		O=C1CCC(N2CCCc3c(N4CCC(O)CC4)cccc32)C(=O)N1 (centres unmarked) [Compound 65-7, 3-[5-(4-hydroxy-1-piperidyl)-3,4-dihydro-2H-quinolin-1-yl]piperidine-2,6-dione]	Kd (CRBN-DDB1 (CRBN_DDB1.7); [4]): < 100000 nM
	< 100000	CC(C)(C)OC(=O)N1CC[C@H]2CN(c3cccc4c3CCN4[C@@H]3CCC(=O)NC3=O)CC[C@H]21 (single isomer, unassigned) [Compound 56-9a]	
	< 100000	CC(C)(C)OC(=O)C1CCN(Cc2cccc3c2CCN3C2CCC(=O)NC2=O)CC1 (racemic) [Compound 54-5, tert-butyl 1-[[1-(2,6-dioxo-3-piperidyl)indolin-4-yl]methyl]piperidine-4-carboxylate]	
	< 100000	CN(C(=O)OC(C)(C)C)[C@H]1CC[C@H](c2c(F)cc3c(c2F)CCN3[C@@H]2CCC(=O)NC2=O)CC1 (single isomer, unassigned) [Compound 55-5]	
	< 100000	CC(C)(C)OC(=O)N1CCC(c2ccc3c(c2)CCN3[C@H]2CCC(=O)NC2=O)CC1 (single isomer, unassigned) [Compound 40-6]	
< 1000		CC(C)(C)OC(=O)N1CCC(c2cccc3c2CCN3[C@H]2CCC(=O)NC2=O)CC1 (single isomer, unassigned) [Compound 41-5]	
	< 100000	CC(C)(C)OC(=O)N1CC[C@@H]2CN(c3cccc4c3CCN4[C@H]3CCC(=O)NC3=O)CC[C@@H]21 (single isomer, unassigned) [Compound 56-8b]	
< 100000	< 100000	CN(C(=O)OC(C)(C)C)[C@H]1CC[C@@H](c2c(F)ccc3c2CCN3C2CCC(=O)NC2=O)CC1 (single isomer, unassigned) [Compound 46-9b, tert-butyl ((1s,4s)-4-(1-(2,6-dioxopiperidin-3-yl)-5-fluoroindolin-4-yl)cyclohexyl)(methyl)carbamate]	
		CC(C)(C)OC(=O)N1CCC2(CC1)Cc1ccccc1N(C1CCC(=O)NC1=O)C2 (centres unmarked) [Compound 64-7, tert-butyl 1-(2,6-dioxo-3-piperidyl)spiro[2,4-dihydroquinoline-3,4′-piperidine]-1′-carboxylate]	Kd (CRBN-DDB1 (CRBN_DDB1.7); [4]): < 100000 nM
		CC(C)(C)OC(=O)N1CCC(c2cccc3c2CCCN3[C@H]2CCC(=O)NC2=O)CC1 (single isomer, unassigned) [Compound 59-6]	Kd (CRBN-DDB1 (CRBN_DDB1.3) [1]; tetrahydroquinoline binders): < 100000 nM; Kd (CRBN-DDB1 (CRBN_DDB1.7); [4]): < 100000 nM
	< 1000	CC(C)(C)OC(=O)N1CC[C@@H]2CN(c3cccc4c3CCN4[C@@H]3CCC(=O)NC3=O)CC[C@@H]21 (single isomer, unassigned) [Compound 59-9b]	
		CC(C)(C)OC(=O)N1CCC(c2cccc3c2CCCN3[C@@H]2CCC(=O)NC2=O)CC1 (single isomer, unassigned) [Compound 59-5]	Kd (CRBN-DDB1 (CRBN_DDB1.3) [1]; tetrahydroquinoline binders): < 100000 nM; Kd (CRBN-DDB1 (CRBN_DDB1.7); [4]): < 100000 nM
	< 1000	CC(C)(C)OC(=O)CC1CCN(c2cccc3c2CCN3[C@@H]2CCC(=O)NC2=O)CC1 (single isomer, unassigned) [Compound 39-6]	
< 1000		O=C1CC[C@@H](N2CCc3c(N4CCC(O)CC4)cccc32)C(=O)N1 (single isomer, unassigned) [Compound 43-4]	
